{"source": "PubChem BioAssay (NCI)", "test_in_all_cases": "growth of human tumour cells (NCI), 48 h", "key": {"COLO 205 colon": {"tested_on": "COLO 205 colon"}, "DU-145 prostate": {"tested_on": "DU-145 prostate"}, "HOP-62 NSCLC": {"tested_on": "HOP-62 NSCLC"}, "HOP-92 NSCLC": {"tested_on": "HOP-92 NSCLC"}, "HT29 colon": {"tested_on": "HT29 colon"}, "K-562 leukemia": {"tested_on": "K-562 leukemia"}, "KM12 colon": {"tested_on": "KM12 colon"}, "OVCAR-5 ovarian": {"tested_on": "OVCAR-5 ovarian"}, "OVCAR-8 ovarian": {"tested_on": "OVCAR-8 ovarian"}, "SN12C renal": {"tested_on": "SN12C renal"}}, "note": "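Protocol summary: plate cells (96-well), add compound at 5 concentrations, incubate 48 h, interpolate endpoints linearly. Abbreviation: GI50, concentration required for 50% inhibition of growth. Definition used: TGI = concentration required for complete inhibition of growth.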", "data": [{"smiles": "C/C1=C\\C/C=C(\\C)[C@H]2CC(CC/C(C)=C/CC1)[C@@](C)(CO)O2", "values": [{"measurement": "GI50", "setting": "COLO 205 colon", "result": "> 100", "unit": "µM"}, {"measurement": "TGI", "setting": "COLO 205 colon", "result": "> 100", "unit": "µM"}, {"measurement": "GI50", "setting": "DU-145 prostate", "result": "> 100", "unit": "µM"}, {"measurement": "TGI", "setting": "DU-145 prostate", "result": "> 100", "unit": "µM"}, {"measurement": "GI50", "setting": "HOP-62 NSCLC", "result": 47.6, "unit": "µM"}, {"measurement": "TGI", "setting": "HOP-62 NSCLC", "result": "> 100", "unit": "µM"}, {"measurement": "GI50", "setting": "HOP-92 NSCLC", "result": 36.3, "unit": "µM"}, {"measurement": "TGI", "setting": "HOP-92 NSCLC", "result": "> 100", "unit": "µM"}, {"measurement": "GI50", "setting": "HT29 colon", "result": "> 100", "unit": "µM"}, {"measurement": "TGI", "setting": "HT29 colon", "result": "> 100", "unit": "µM"}, {"measurement": "GI50", "setting": "K-562 leukemia", "result": 28.4, "unit": "µM"}, {"measurement": "TGI", "setting": "K-562 leukemia", "result": "> 100", "unit": "µM"}, {"measurement": "GI50", "setting": "KM12 colon", "result": 62.7, "unit": "µM"}, {"measurement": "TGI", "setting": "KM12 colon", "result": "> 100", "unit": "µM"}, {"measurement": "GI50", "setting": "OVCAR-5 ovarian", "result": "> 100", "unit": "µM"}, {"measurement": "TGI", "setting": "OVCAR-5 ovarian", "result": "> 100", "unit": "µM"}, {"measurement": "GI50", "setting": "OVCAR-8 ovarian", "result": "> 100", "unit": "µM"}, {"measurement": "TGI", "setting": "OVCAR-8 ovarian", "result": "> 100", "unit": "µM"}, {"measurement": "GI50", "setting": "SN12C renal", "result": 16.3, "unit": "µM"}, {"measurement": "TGI", "setting": "SN12C renal", "result": "> 100", "unit": "µM"}]}]}
